Laboratory results taken from US10618918B2, “Substituted boronic acids as antimicrobials” (priority 2015, dated 2020).
pKi: −log10 of the molar value.

Key:
ec308 SHV-5 = experiment: Aztreonam potentiation (MPC@4), strain ec308 SHV-5; conditions: minimum BLI concentration inhibiting growth with aztreonam 4 μg/mL; tested up to 40 μg/mL
KP1010 SHV-12 = experiment: Aztreonam potentiation (MPC@4), strain KP1010 SHV-12; conditions: minimum BLI concentration inhibiting growth with aztreonam 4 μg/mL; tested up to 40 μg/mL
EC1010 CMY-6 = experiment: Aztreonam potentiation (MPC@4), strain EC1010 CMY-6; conditions: minimum BLI concentration inhibiting growth with aztreonam 4 μg/mL; tested up to 40 μg/mL
KP1004 KPC-2 [1] = experiment: Biapenem potentiation (MPC@1), strain KP1004 KPC-2; type: cell-based; conditions: minimum BLI concentration inhibiting growth with biapenem 1 μg/mL; tested up to 40 μg/mL
Procedure: (§1) Biapenem was present in the test medium at 1 μg/mL. […] Table 3 summarizes the BLI potency of biapenem potentiation (MPC@1) for two strains overexpressing class A (KPC) and class D (OXA-48) carbapenemases. Biapenem MIC for each strain is also shown.

ec302 TEM-10 = experiment: Aztreonam potentiation (MPC@4), strain ec302 TEM-10; conditions: minimum BLI concentration inhibiting growth with aztreonam 4 μg/mL; tested up to 40 μg/mL
KP1086 OXA-48 = experiment: Biapenem potentiation (MPC@1), strain KP1086 OXA-48; type: cell-based; conditions: minimum BLI concentration inhibiting growth with biapenem 1 μg/mL; tested up to 40 μg/mL
Procedure: as §1

ECL1002 = experiment: Aztreonam potentiation (MPC@4), strain ECL1002; conditions: minimum BLI concentration inhibiting growth with aztreonam 4 μg/mL; tested up to 40 μg/mL
KP1004 KPC-2 [2] = experiment: Aztreonam potentiation (MPC@4), strain KP1004 KPC-2; conditions: minimum BLI concentration inhibiting growth with aztreonam 4 μg/mL; tested up to 40 μg/mL
KP1009 CTX-M-15 = experiment: Aztreonam potentiation (MPC@4), strain KP1009 CTX-M-15; conditions: minimum BLI concentration inhibiting growth with aztreonam 4 μg/mL; tested up to 40 μg/mL
PAM1032/KPC-2 = experiment: Biapenem potentiation MPC64 in PAM1032/KPC-2 (efflux proficient, overexpresses MexAB-OprM); type: cell-based, Pseudomonas aeruginosa; conditions: BLI concentration decreasing biapenem MIC 64-fold, from 32 μg/ml to 0.5 μg/ml; efflux proficient strain
Procedure: (§2) Efflux of BLIs from Pseudomonas aeruginosa by the MexAB-OprM efflux pump was also evaluated. The plasmid expressing the gene encoding KPC-2 was introduced into two strains of P. aeruginosa, PAM1032 and PAM 1154 that overexpressed or lacked MexAB-OprM, respectively. […] Potency of BLIs to potentiate biapenem in these strains was determined.

[3] = molecular target: purified class A, C and D enzymes (β-lactamases) (Escherichia coli, UniProt Q9L5C7); experiment: biochemical; type: biochemical; conditions: purified CTX-M-14; nitrocefin (NCF) as reporter substrate
[4] = molecular target: purified class A, C and D enzymes (β-lactamases) (Klebsiella pneumoniae, UniProt Q6XEC0); experiment: biochemical; type: biochemical; conditions: purified OXA-48; nitrocefin (NCF) as reporter substrate
[5] = molecular target: T1, purified class A, C and D enzymes (β-lactamases) (UniProt P0AD64, L31Q/G234S/E235K, species not given); experiment: biochemical; type: biochemical; conditions: purified SHV-12; nitrocefin (NCF) as reporter substrate; read-out: Ki (SHV-12, NCF)
T1 construct: Ki (SHV-12, NCF), uM; other: purified SHV-12; nitrocefin (NCF) as reporter substrate
T1 sequence (P0AD64 1-286 L31Q/G234S/E235K): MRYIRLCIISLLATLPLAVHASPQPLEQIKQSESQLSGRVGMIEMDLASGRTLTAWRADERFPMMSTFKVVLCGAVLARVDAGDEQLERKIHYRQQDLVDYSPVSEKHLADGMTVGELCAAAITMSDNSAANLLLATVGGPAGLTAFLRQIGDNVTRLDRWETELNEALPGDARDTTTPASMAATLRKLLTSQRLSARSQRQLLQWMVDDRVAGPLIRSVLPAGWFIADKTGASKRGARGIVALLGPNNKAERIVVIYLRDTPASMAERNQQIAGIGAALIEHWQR

[6] = molecular target: purified class A, C and D enzymes (β-lactamases) (Enterobacter cloacae, UniProt P05364); experiment: biochemical; type: biochemical; conditions: purified P99; nitrocefin (NCF) as reporter substrate
[7] = molecular target: purified class A, C and D enzymes (β-lactamases) (Klebsiella pneumoniae, UniProt Q9F663); experiment: biochemical; type: biochemical; conditions: purified KPC-2; nitrocefin (NCF) as reporter substrate
PAM1154/KPC-2 = experiment: Biapenem potentiation MPC64 in PAM1154/KPC-2 (efflux deficient, lacks MexAB-OprM); type: cell-based, Pseudomonas aeruginosa; conditions: BLI concentration decreasing biapenem MIC 64-fold, from 32 μg/ml to 0.5 μg/ml; efflux deficient strain
Procedure: as §2

KP1005 CTX-M-14 = experiment: Tigemonam potentiation (MPC@4), strain KP1005 CTX-M-14; conditions: minimum BLI concentration inhibiting growth with tigemonam 4 μg/mL; tested up to 40 μg/mL
AB1054 OXA-23 = experiment: Meropenem potentiation (MPC@8), strain AB1054 OXA-23; type: cell-based, Acinetobacter baumannii; conditions: minimum BLI concentration inhibiting growth with meropenem 8 μg/mL; tested up to 20 μg/mL
AB1053 OXA-72 = experiment: Meropenem potentiation (MPC@8), strain AB1053 OXA-72; type: cell-based, Acinetobacter baumannii; conditions: minimum BLI concentration inhibiting growth with meropenem 8 μg/mL; tested up to 20 μg/mL
[8] = molecular target: T2, purified class A, C and D enzymes (β-lactamases) (Acinetobacter baumannii, UniProt Q9L4P2); experiment: biochemical; type: biochemical; conditions: purified OXA-23; nitrocefin (NCF) as reporter substrate
T2 construct: rows headed: Ki (OXA-23, NCF), uM; other: purified OXA-23; nitrocefin (NCF) as reporter substrate
T2 sequence (Q9L4P2 whole entry): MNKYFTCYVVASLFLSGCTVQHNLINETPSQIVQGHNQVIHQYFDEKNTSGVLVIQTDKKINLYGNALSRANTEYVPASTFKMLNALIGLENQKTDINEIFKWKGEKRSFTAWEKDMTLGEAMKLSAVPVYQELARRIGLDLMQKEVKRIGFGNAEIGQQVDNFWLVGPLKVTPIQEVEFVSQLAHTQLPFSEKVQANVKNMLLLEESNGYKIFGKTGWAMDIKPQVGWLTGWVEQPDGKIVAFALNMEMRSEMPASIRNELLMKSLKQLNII

purified class A, C and D enzymes (β-lactamases) (Escherichia coli, UniProt Q9L5C7), sequence (Q9L5C7 entry or part of it): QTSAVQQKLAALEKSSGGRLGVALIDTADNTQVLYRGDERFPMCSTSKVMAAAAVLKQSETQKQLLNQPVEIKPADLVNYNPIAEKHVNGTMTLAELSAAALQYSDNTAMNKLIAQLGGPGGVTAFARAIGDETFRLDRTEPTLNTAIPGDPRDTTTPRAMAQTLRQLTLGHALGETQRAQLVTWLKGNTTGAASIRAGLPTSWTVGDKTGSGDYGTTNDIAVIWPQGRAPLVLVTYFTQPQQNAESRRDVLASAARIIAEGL
purified class A, C and D enzymes (β-lactamases) (Enterobacter cloacae, UniProt P05364), sequence (P05364 21-381): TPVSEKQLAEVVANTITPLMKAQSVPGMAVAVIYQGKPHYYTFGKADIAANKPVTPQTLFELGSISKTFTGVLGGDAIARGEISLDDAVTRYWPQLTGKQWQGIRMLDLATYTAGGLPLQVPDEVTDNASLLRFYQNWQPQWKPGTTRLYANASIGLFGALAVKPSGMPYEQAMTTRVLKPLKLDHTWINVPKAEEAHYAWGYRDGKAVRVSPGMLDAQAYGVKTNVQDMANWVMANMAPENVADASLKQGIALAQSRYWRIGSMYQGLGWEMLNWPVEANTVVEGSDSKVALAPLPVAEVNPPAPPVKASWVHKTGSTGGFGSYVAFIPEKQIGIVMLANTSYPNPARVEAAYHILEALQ

O=C(Cc1cccs1)NC1CB(O)Oc2c(C(=O)O)cccc21 (centres unmarked) [Compound 1, 2-HYDROXY-4-(2-(THIOPHEN-2-YL)ACETAMIDO)-3,4-DIHYDRO-2H-BENZO[E][1,2]OXABORININE-8-CARBOXYLIC ACID]
AZT MPC4 SHV-5 ec308 (ec308 SHV-5): X (X = MPC@4 ≤ 5 μg/mL)
AZT MPC4 SHV-12 KP1010 (KP1010 SHV-12): X (X = MPC@4 ≤ 5 μg/mL)
AZT MPC4 CMY-6 EC1010 (EC1010 CMY-6): X (X = MPC@4 ≤ 5 μg/mL)
BPM MPC1 KP1004 KPC-2 (KP1004 KPC-2 [1]): X (X = MPC@1 ≤ 5 μg/mL)
AZT MPC4 TEM-10 ec302 (ec302 TEM-10): X (X = MPC@4 ≤ 5 μg/mL)
BPM MPC1 OXA-48 KP1086 (KP1086 OXA-48): Y (Y = 5 μg/mL < MPC@1 ≤ 20 μg/mL)
AZT MPC4 ECL1002 (ECL1002): Y (Y = 5 μg/mL < MPC@4 ≤ 20 μg/mL)
AZT MPC4 KPC-2 KP1004 (KP1004 KPC-2 [2]): X (X = MPC@4 ≤ 5 μg/mL)
AZT MPC4 CTX-M-15 KP1009 (KP1009 CTX-M-15): X (X = MPC@4 ≤ 5 μg/mL)
PAM1032/KPC-2 Biapenem MPC64 (PAM1032/KPC-2): 40
Ki (CTX-M-14, NCF), uM [3]: X (X = Ki ≤ 0.1 μM)
Ki (OXA-48, NCF), uM [4]: X (X = Ki ≤ 0.1 μM)
pKi [5]: > 7.00
Ki (P99, NCF), uM [6]: X (X = Ki ≤ 0.1 μM)
Ki (KPC-2, NCF), uM [7]: X (X = Ki ≤ 0.1 μM)
PAM1154/KPC-2 Biapenem MPC64 (PAM1154/KPC-2): 2.5
TIG MPC4 CTX-M-14 KP1005 (KP1005 CTX-M-14): X (X = MPC@4 ≤ 5 μg/mL)

Nc1nnc(C(=O)NC2CB(O)Oc3c(C(=O)O)cccc32)s1 (centres unmarked) [Compound 2, 4-(5-AMINO-1,3,4-THIADIAZOLE-2-CARBOXAMIDO)-2-HYDROXY-3,4-DIHYDRO-2H-BENZO[E][1,2]OXABORININE-8-CARBOXYLIC ACID]
AZT MPC4 SHV-5 ec308 (ec308 SHV-5): X (X = MPC@4 ≤ 5 μg/mL)
AZT MPC4 SHV-12 KP1010 (KP1010 SHV-12): X (X = MPC@4 ≤ 5 μg/mL)
AZT MPC4 CMY-6 EC1010 (EC1010 CMY-6): X (X = MPC@4 ≤ 5 μg/mL)
BPM MPC1 KP1004 KPC-2 (KP1004 KPC-2 [1]): X (X = MPC@1 ≤ 5 μg/mL)
AZT MPC4 TEM-10 ec302 (ec302 TEM-10): X (X = MPC@4 ≤ 5 μg/mL)
BPM MPC1 OXA-48 KP1086 (KP1086 OXA-48): X (X = MPC@1 ≤ 5 μg/mL)
AZT MPC4 ECL1002 (ECL1002): X (X = MPC@4 ≤ 5 μg/mL)
AZT MPC4 KPC-2 KP1004 (KP1004 KPC-2 [2]): X (X = MPC@4 ≤ 5 μg/mL)
AZT MPC4 CTX-M-15 KP1009 (KP1009 CTX-M-15): X (X = MPC@4 ≤ 5 μg/mL)
PAM1032/KPC-2 Biapenem MPC64 (PAM1032/KPC-2): 20
Ki (CTX-M-14, NCF), uM [3]: X (X = Ki ≤ 0.1 μM)
Ki (OXA-48, NCF), uM [4]: X (X = Ki ≤ 0.1 μM)
pKi [5]: > 7.00
Ki (P99, NCF), uM [6]: X (X = Ki ≤ 0.1 μM)
Ki (KPC-2, NCF), uM [7]: X (X = Ki ≤ 0.1 μM)
PAM1154/KPC-2 Biapenem MPC64 (PAM1154/KPC-2): 1.25
TIG MPC4 CTX-M-14 KP1005 (KP1005 CTX-M-14): X (X = MPC@4 ≤ 5 μg/mL)

O=C(O)c1cccc2c1OB(O)CN2S(=O)(=O)Cc1ccccc1 [Compound 4, 4-(BENZYLSULFONYL)-2-HYDROXY-3,4-DIHYDRO-2H-BENZO[E][1,4,2]OXAZABORININE-8-CARBOXYLIC ACID]
AZT MPC4 SHV-5 ec308 (ec308 SHV-5): Z (Z = MPC@4 > 20 μg/mL)
AZT MPC4 SHV-12 KP1010 (KP1010 SHV-12): Z (Z = MPC@4 > 20 μg/mL)
AZT MPC4 CMY-6 EC1010 (EC1010 CMY-6): Z (Z = MPC@4 > 20 μg/mL)
BPM MPC1 KP1004 KPC-2 (KP1004 KPC-2 [1]): X (X = MPC@1 ≤ 5 μg/mL)
AZT MPC4 TEM-10 ec302 (ec302 TEM-10): Z (Z = MPC@4 > 20 μg/mL)
BPM MPC1 OXA-48 KP1086 (KP1086 OXA-48): Z (Z = MPC@1 > 20 μg/mL)
AZT MPC4 ECL1002 (ECL1002): Z (Z = MPC@4 > 20 μg/mL)
AZT MPC4 KPC-2 KP1004 (KP1004 KPC-2 [2]): Z (Z = MPC@4 > 20 μg/mL)
AZT MPC4 CTX-M-15 KP1009 (KP1009 CTX-M-15): Z (Z = MPC@4 > 20 μg/mL)
PAM1032/KPC-2 Biapenem MPC64 (PAM1032/KPC-2): >80
Ki (CTX-M-14, NCF), uM [3]: X (X = Ki ≤ 0.1 μM)
Ki (OXA-48, NCF), uM [4]: X (X = Ki ≤ 0.1 μM)
pKi [5]: > 7.00
Ki (P99, NCF), uM [6]: X (X = Ki ≤ 0.1 μM)
Ki (KPC-2, NCF), uM [7]: X (X = Ki ≤ 0.1 μM)
PAM1154/KPC-2 Biapenem MPC64 (PAM1154/KPC-2): 5
TIG MPC4 CTX-M-14 KP1005 (KP1005 CTX-M-14): Z (Z = MPC@4 > 20 μg/mL)

O=C(O)c1cccc2c1OB(O)CC2 [Compound 5, 2-HYDROXY-3,4-DIHYDRO-1,2-BENZOXABORININE-8-CARBOXYLIC ACID]
AZT MPC4 SHV-5 ec308 (ec308 SHV-5): Z (Z = MPC@4 > 20 μg/mL)
AZT MPC4 SHV-12 KP1010 (KP1010 SHV-12): Y (Y = 5 μg/mL < MPC@4 ≤ 20 μg/mL)
AZT MPC4 CMY-6 EC1010 (EC1010 CMY-6): Y (Y = 5 μg/mL < MPC@4 ≤ 20 μg/mL)
BPM MPC1 KP1004 KPC-2 (KP1004 KPC-2 [1]): X (X = MPC@1 ≤ 5 μg/mL)
AZT MPC4 TEM-10 ec302 (ec302 TEM-10): Z (Z = MPC@4 > 20 μg/mL)
BPM MPC1 OXA-48 KP1086 (KP1086 OXA-48): X (X = MPC@1 ≤ 5 μg/mL)
MPM MPC8 AB1054 OXA-23 (AB1054 OXA-23): Y (Y = 5 μg/mL < MPC@1 ≤ 20 μg/mL)
MPM MPC8 AB1053 OXA-72 (AB1053 OXA-72): Z (Z = MPC@1 > 20 μg/mL)
AZT MPC4 ECL1002 (ECL1002): Z (Z = MPC@4 > 20 μg/mL)
AZT MPC4 KPC-2 KP1004 (KP1004 KPC-2 [2]): X (X = MPC@4 ≤ 5 μg/mL)
AZT MPC4 CTX-M-15 KP1009 (KP1009 CTX-M-15): Y (Y = 5 μg/mL < MPC@4 ≤ 20 μg/mL)
PAM1032/KPC-2 Biapenem MPC64 (PAM1032/KPC-2): 20
Ki (CTX-M-14, NCF), uM [3]: X (X = Ki ≤ 0.1 μM)
Ki (OXA-48, NCF), uM [4]: X (X = Ki ≤ 0.1 μM)
pKi [5]: > 7.00
pKi [8]: 6.00 to 7.00
Ki (P99, NCF), uM [6]: X (X = Ki ≤ 0.1 μM)
Ki (KPC-2, NCF), uM [7]: X (X = Ki ≤ 0.1 μM)
PAM1154/KPC-2 Biapenem MPC64 (PAM1154/KPC-2): 0.3
TIG MPC4 CTX-M-14 KP1005 (KP1005 CTX-M-14): Z (Z = MPC@4 > 20 μg/mL)
